# In patent US4771041A, “Method for combating virus infection” (priority 1976, dated 1988):
# Legend:
# [1] = target: T1, reverse transcriptase from VV (Maedi visna virus, UniProt P03370); assay: Cell-free reverse transcriptase inhibition, VV; type: biochemical; conditions: template/primer (rA)n.(dT)10, read-out: Percent inhibition
# T1 construct: Reverse transcriptase from various retroviruses have been tested in cell-free assays; made in house
# Description: (§1) Reverse transcriptase from various retroviruses have been tested in cell-free assays for inhibition by phosphonoformic acid and phosphonoacetic acid. The assay conditions have been described by Collaborative Research, Inc, 1365 Main Street, Waltham, Mass., USA "Assay kit for mammalian viral reverse transcriptase". BLV and VV were prepared in this laboratory and all other viruses and viral enzyme were obtained from Dr. K Nilsson, Department of Pathology, University of Uppsala and from Boehringer Mannheim, Germany. Phosphonoformic acid (PFA) and phosphonoacetic acid (PAA) were added at pH 7.2 to the reaction mixtures at the start of the reaction.
# (§2) Rauscher murine leukemia virus; RMuLV, visna virus; VV, avian myeloblastosis virus; AMV, bovine leukemia virus; BLV, baboon endogenous virus; BaEV, simian sarcoma virus; SSV.
# [2] = guinea pig, in vivo
# Description: Phosphonoformic acid and phosphonoacetic acid were used as their trisodium and disodium salts, respectively. The test substances were used in 1% solutions.
# Guinea-pigs of the Dunkin-Hartley strain of both sexes and weighing 200-300 g were used. The back of the animal was shaved and depilated with Opilca® on the day before starting the application of the solutions. The back was divided into six squares in the middle of which 30 μl of the test solutions was applied. In a given group of animals the different solutions were applied in a randomized order alternating between sites. However, the same site was used for repeated application of a given solution.
# The irritation was scored on scales of 0 to 3, each grade corresponding to the following specific criteria of irritation:
# 1=slight erythema or edema or no hair growth
# 2=moderate erythema or edema or skin discoloration
# 3=marked erythema or edema or necrosis including crust formation.
# The scoring was carried out blindly using coded solutions.
# The scores of all the applications for a given solution and time were added and the average score was calculated.
# The solvent used was a mixture of glycerol 10.0% (w/v), Tween 80 0.1% and aq sterile ad 100. All solutions were adjusted to pH 6.5 with hydrochloric acid or aqueous sodium hydroxide as required. Thirty μl of 1.0% solutions of phosphonoformic acid and phosphonoacetic acid respectively was applied twice daily during three days to each of six guinea pigs.
# [3] = system: reverse transcriptase from AMV; assay: Cell-free reverse transcriptase inhibition, AMV; type: biochemical, avian myeloblastosis virus
# Description: as §1, §2
# [4] = system: visna virus; assay: Visna virus growth in sheep choroid plexus (SCP) cells: virus titre and morphological changes; type: cell-based; conditions: 500 μM
# Description: Visna virus is a retrovirus that can multiply in sheep choroid (SCP) cells. The infection can be followed by titrating medium from infected cells to determine the formation of virus particles and by observing morphological changes as syncytial formation and cell degeneration.
# Plates (5 cm) with primary SCP cells in medium 199 with 10% sheep serum were grown to confluence and then infected with 1×10^6 TCID50 (tissue culture infectious doses) of visna virus. One set of plates were left untreated, one set received different concentrations of phosphonoformic acid (PFA) at pH 7.2. Another set received phosphonoacetic acid (PAA) at pH 7.2. Uninfected plates were used as controls with and without PFA and PAA. The virus titre was determined 5 days after infection by the end-point titration method. The plates were checked daily in a light microscope to observe morphological changes.
# [5] = target: T2, reverse transcriptase from BaEV (Baboon endogenous virus, UniProt P10272); assay: Cell-free reverse transcriptase inhibition, BaEV; type: biochemical; conditions: template/primer (rA)n.(dT)10, read-out: Percent inhibition
# T2 construct: Reverse transcriptase from various retroviruses have been tested in cell-free assays
# Description: as §1, §2
# [6] = parameters: species or system Cynomolgus monkeys; conditions: cynomolgus monkey, in vivo
# Description: Phosphonoformic acid, also denoted PFA and phosphonoacetic acid, also denoted PAA were used in the form of their trisodium and disodium salt, respectively. The following equimolar compositions of the two test compounds were used: […]
# Two adult male Cynomolgus monkeys were treated once daily for 7 days with PFA or PAA in Arlatone cream. Treatment was done both by topical application of 0.2 ml cream on an area of 3×7 cm on the upper part of the arms and by application of 0.2 ml of cream on the penis and the adjacent skin. During application of cream, the animals were lightly anaesthetized with Ketalar®, given intramuscularly. All applications were 0.2 ml each on day 6/3, 7/3, 8/3, 9/3, 10/3, 11/3 and 12/3 1978.
# [7] = target: T3, reverse transcriptase from BLV (Bovine leukemia virus, UniProt P03361); assay: Cell-free reverse transcriptase inhibition, BLV; type: biochemical; conditions: template/primer (rA)n.(dT)10, read-out: Percent inhibition
# T3 construct: Reverse transcriptase from various retroviruses have been tested in cell-free assays; made in house
# Description: as §1, §2
# [8] = target: T4, reverse transcriptase from SSV (Woolly monkey sarcoma virus, UniProt P03359); assay: Cell-free reverse transcriptase inhibition, SSV; type: biochemical, simian sarcoma virus; conditions: template/primer (rA)n.(dT)10, read-out: Percent inhibition
# T4 construct: Reverse transcriptase from various retroviruses have been tested in cell-free assays
# Description: as §1, §2
# [9] = system: reverse transcriptase from RMuLV; assay: Cell-free reverse transcriptase inhibition, RMuLV; type: biochemical, Rauscher murine leukemia virus; conditions: template/primer (rA)n.(dT)10
# Description: as §1, §2
# T2 sequence (P10272 659-1335): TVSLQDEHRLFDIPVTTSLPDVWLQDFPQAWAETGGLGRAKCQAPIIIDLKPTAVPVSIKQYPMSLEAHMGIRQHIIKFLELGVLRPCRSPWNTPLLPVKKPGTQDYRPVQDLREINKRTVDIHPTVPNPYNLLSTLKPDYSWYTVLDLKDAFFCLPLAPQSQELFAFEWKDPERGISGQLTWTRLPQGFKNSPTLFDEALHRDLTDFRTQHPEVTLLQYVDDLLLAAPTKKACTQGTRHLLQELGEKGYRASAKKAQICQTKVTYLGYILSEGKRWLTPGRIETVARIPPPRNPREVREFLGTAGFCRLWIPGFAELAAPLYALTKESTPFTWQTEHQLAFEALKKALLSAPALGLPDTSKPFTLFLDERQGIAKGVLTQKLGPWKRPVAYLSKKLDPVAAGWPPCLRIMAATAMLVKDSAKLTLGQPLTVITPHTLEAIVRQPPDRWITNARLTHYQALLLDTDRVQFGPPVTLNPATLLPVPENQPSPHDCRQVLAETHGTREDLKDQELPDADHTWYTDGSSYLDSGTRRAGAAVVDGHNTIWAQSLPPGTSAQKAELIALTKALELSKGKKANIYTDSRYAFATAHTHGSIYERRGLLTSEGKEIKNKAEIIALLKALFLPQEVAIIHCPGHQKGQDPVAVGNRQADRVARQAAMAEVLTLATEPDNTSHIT
# T4 sequence (P03359 642-1310): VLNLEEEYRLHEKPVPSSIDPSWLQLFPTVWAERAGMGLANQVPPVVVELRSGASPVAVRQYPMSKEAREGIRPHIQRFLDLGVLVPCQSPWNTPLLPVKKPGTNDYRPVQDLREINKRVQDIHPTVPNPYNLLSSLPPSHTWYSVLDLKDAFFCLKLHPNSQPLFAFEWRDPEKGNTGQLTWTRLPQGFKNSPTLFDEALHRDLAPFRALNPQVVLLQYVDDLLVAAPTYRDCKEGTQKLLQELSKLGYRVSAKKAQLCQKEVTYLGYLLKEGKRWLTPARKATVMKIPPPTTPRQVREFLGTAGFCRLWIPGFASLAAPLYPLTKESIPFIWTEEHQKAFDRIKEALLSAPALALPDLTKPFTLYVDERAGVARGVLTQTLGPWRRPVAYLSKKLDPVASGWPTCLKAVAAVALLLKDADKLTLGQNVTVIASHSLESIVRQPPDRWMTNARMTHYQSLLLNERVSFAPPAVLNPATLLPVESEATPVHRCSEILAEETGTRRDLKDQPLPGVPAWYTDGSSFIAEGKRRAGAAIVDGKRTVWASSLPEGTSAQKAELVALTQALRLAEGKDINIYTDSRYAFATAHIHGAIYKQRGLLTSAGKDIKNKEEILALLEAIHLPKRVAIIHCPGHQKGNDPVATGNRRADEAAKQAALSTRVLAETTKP
# T3 sequence (P03361 546-1120): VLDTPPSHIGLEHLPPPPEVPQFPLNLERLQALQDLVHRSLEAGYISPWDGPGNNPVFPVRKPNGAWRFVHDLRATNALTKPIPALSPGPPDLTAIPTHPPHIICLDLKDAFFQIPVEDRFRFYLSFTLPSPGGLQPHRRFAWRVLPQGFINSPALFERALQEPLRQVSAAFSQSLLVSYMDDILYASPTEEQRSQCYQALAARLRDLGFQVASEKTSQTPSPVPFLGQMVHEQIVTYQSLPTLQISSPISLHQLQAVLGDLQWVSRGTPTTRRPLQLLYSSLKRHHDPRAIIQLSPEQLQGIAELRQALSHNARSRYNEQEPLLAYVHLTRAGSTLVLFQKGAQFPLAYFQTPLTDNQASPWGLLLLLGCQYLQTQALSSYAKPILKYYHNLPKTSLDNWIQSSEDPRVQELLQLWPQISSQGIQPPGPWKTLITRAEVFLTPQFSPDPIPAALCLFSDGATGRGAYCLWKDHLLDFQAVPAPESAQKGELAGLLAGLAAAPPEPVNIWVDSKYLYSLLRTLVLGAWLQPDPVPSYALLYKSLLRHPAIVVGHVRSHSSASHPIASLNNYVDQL
# T1 sequence (P03370 541-1111): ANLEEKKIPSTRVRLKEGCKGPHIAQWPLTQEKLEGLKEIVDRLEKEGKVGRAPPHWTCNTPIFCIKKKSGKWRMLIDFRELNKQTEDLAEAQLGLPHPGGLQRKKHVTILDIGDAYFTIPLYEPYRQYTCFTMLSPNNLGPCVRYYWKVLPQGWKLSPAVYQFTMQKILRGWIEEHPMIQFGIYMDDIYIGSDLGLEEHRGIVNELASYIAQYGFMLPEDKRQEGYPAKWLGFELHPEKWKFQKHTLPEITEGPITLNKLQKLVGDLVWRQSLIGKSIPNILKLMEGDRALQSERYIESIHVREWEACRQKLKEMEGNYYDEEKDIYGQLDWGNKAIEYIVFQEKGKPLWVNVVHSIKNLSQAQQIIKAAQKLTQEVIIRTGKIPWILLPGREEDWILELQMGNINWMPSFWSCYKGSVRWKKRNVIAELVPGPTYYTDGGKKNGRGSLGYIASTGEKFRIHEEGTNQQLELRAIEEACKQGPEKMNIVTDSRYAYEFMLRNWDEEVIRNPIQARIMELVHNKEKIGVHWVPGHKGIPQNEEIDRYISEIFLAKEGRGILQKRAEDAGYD
structure (smiles),measurement,setting,value
"O=C(O)CP(=O)(O)O [phosphonoacetic acid, reference compound]",inhibition at 100 µM,[1]; 100 μM,25%
same,inhibition at 500 µM,[1]; 500 μM,3%
same,skin condition after two weeks,[2],the skin heals after about two weeks but remains hairless
same,skin irritation score,[2]; pH 6.5,2-3 score
same,Percent inhibition,"[3]; 10 μM, endogenous template",0%
same,Percent inhibition,"[3]; 10 μM, purified enzyme, (rA)n.(dT)10",0%
same,Percent inhibition,"[3]; 10 μM, template/primer (rA)n.(dT)10",0%
same,Percent inhibition,"[3]; 100 μM, endogenous template",-2%
same,Percent inhibition,"[3]; 100 μM, purified enzyme, (rA)n.(dT)10",0%
same,Percent inhibition,"[3]; 100 μM, template/primer (rA)n.(dT)10",-34%
same,Percent inhibition,"[3]; 500 μM, endogenous template",-3%
same,Percent inhibition,"[3]; 500 μM, purified enzyme, (rA)n.(dT)10",19%
same,Percent inhibition,"[3]; 500 μM, template/primer (rA)n.(dT)10",-86%
same,effect on virus multiplication,[4]; SCP cells,does not prevent virus multiplication
same,Morphological changes Day 3,[4]; Visna virus infected cells,+ (10% cell degeneration)
same,Morphological changes Day 5,[4]; Visna virus infected cells,++ (25% cell degeneration)
same,Morphological changes Day 7,[4]; Visna virus infected cells,++++ (100% cell degeneration)
same,inhibition at 10 µM,[5]; 10 μM,5%
same,inhibition at 100 µM,[5]; 100 μM,58%
same,inhibition at 500 µM,[5]; 500 μM,71%
same,"Result (skin irritation), area of application penis",[6],Glans penis and adjacent skin areas irritated 9/3-12/3 Adjacent skin areas also showed symptoms 23/3
same,inhibition at 100 µM,[7]; 100 μM,0%
same,inhibition at 500 µM,[7]; 500 μM,10%
same,inhibition at 10 µM,[8]; 10 μM,0%
same,inhibition at 100 µM,[8]; 100 μM,44%
same,inhibition at 500 µM,[8]; 500 μM,58%
same,Percent inhibition,[9]; 10 μM,0%
same,Percent inhibition,[9]; 100 μM,10%
same,Percent inhibition,[9]; 500 μM,35%
